Experimental data as given in article PMC6687188, “Novel lactate dehydrogenase inhibitors with in vivo efficacy against Cryptosporidium parvum” (PLoS Pathogens, 2019).

biological target: recombinant CpLDH protein (Cryptosporidium parvum, UniProt Q9GT92, F198L/K295E/R251K); settings: not given

Structure (SMILES) | MEAN CpLDH INHIBITION (%)
C[C@]12C=CC(=O)C=C1[C@@H](F)C[C@H]1[C@@H]3CC[C@](O)(C(=O)CO)[C@@]3(C)C[C@H](O)[C@@]12F [NSC77021] | -2.42
CN1CCN(CCSC2Cc3cc(Cl)ccc3Sc3ccccc32)CC1 (stereo not shown) [NSC635366] | -12.08
CN1CCCC2C(c3ccccc3)C(C3=NCCCC3)C(c3ccccc3)CC21.Cl (stereo not shown) [NSC109444] | -58.72
O=C(OCC12CC3CC(CC(C3)C1)C2)c1ccc(NCc2cc(O)ccc2O)cc1 [NSC689857] | -0.01
COC(=O)[C@@H]1[C@H](O)[C@H](C)[C@H](O)[C@H](C)/C=C\C=C(/C)C(=O)Nc2c(C)c(OC(C)=O)c3c(c2O)C(=O)C(C)=C2OCOC(=C23)/C(C)=C/[C@@](C)(O)[C@H](O)[C@@H](C)[C@H]1O [NSC19990] | -27.23
COC(=O)C(=O)C(C(=O)C(=O)Nc1cc(C)ccc1C)c1nc2ccc(C(=O)c3ccccc3)cc2[nH]c1=O (stereo not shown) [NSC642040] | -9.38
C/C(=N\NC(=S)N1CCN(C2CCCCCC2)CC1)c1ccccn1 [NSC376265] | -34.26
Nc1ccc2c(c1)S(=O)(=O)c1cc(N)ccc1-2 [NSC13966] | -21.73
COC1OC(COCc2ccc(Cl)cc2)C(OCc2ccc(Cl)cc2)C1O (stereo not shown) [NSC626120] | -0.60
CCN(CC)CC.CCOc1ccc(NC(=O)N=C=[N-])cc1.[CH-]1CCCCC1.[CH-]1CCCCC1.[CH-]1CCCCC1.[Cl-].[Sn+4] [NSC353527] | -42.92
C=C(C)[C@@H]1CC[C@]2(CO)CC[C@]3(C)[C@H](CC[C@@H]4[C@@]5(C)CC[C@H](O)C(C)(C)[C@@H]5CC[C@]43C)[C@@H]12 [NSC4644] | -25.29
C=C1CC(COc2cc(=O)oc3ccccc23)(c2ccccc2)OC1=O (stereo not shown) [NSC668270] | -4.80
CN(C)C(=S)/N=c1\ss/c(=N\C(=S)N(C)C)n1-c1ccc2c(c1)OCO2 [NSC622589] | -7.95
CC(=O)[O][Hg][c]1c(C)c(C)c(C)c(C)c1C [NSC174176] | -60.94
Nc1ccn([C@@H]2C=C(CO)[C@@H](O)[C@H]2O)c(=O)n1 [NSC375575] | -28.69
O=[N+]([O-])c1ccc(N=Nc2c(O)[nH]c3ccccc23)c([N+](=O)[O-])c1 [NSC4810] | -33.40
CN(C)C[C@H]1CC[C@@H](CN(C)C)C1=O.Cl [NSC640391] | -1.88
CN(C)CCCN1c2ccccc2Sc2ccc3ccccc3c21 [NSC18891] | -7.99
Cc1cc(O)c2c(c1)C(=O)c1cc(O)cc(O)c1C2=O [NSC408120] | -6.79
COc1cc([C@@H]2c3cc4c(c(O)c3C[C@H]3COC(=O)[C@@H]32)OCO4)cc(OC)c1O [NSC24817] | -20.22
C/C=C(\CCC1NCCc2c1[nH]c1ccccc21)[Si](C)(C)C (stereo not shown) [NSC619165] | -14.52
Cc1ccc([S+](c2ccccc2)c2cc(C)ccc2C)cc1.O=C(OC(C(=O)[O-])C(OC(=O)c1ccccc1)C(=O)O)c1ccccc1 (stereo not shown) [NSC116693] | -151.85
NC1(C(=O)O)CCCC1 [NSC1026] | -29.26

Structure (SMILES) | MEAN CpLDH INHIBITION (%)
Cl.NCCSSCc1ccccc1CSSCCN [NSC624169] | -25.23
O=S1(=O)CCN(c2ccccc2CC(c2c[nH]c3ccccc23)c2c[nH]c3ccccc23)CC1 [NSC35949] | -34.03
NC1N=C(c2ccc(Cl)cc2)C2=C(N1)c1ccccc1CC2 (stereo not shown) [NSC682864] | -37.11
NC(=S)N/N=C/c1ccc(OC(=O)COc2ccccc2Cl)cn1 [NSC185056] | -5.23
O=c1[nH]c2ccc(O)cc2o1 [NSC603719] | -2.52
CCS(=O)(=O)O.CN(C)C(=O)c1cccc(COc2ccc(N3C(N)=NC(N)=NC3(C)C)cc2Cl)c1 [NSC139105] | -28.54
CCCCCCCCCCCCCCCC[N+](C)(C)CCl.[Cl-] [NSC672904] | -0.06
O=Nc1ccc(O)c2ncccc12 [NSC3852] | -37.64
CC(=O)NC1C(OCc2ccccc2)OC(CO)C(O)C1OC(C)C(=O)NC(C(=O)NC(CCC(=O)NCCCCNc1c2ccccc2nc2cccc([N+](=O)[O-])c12)C(N)=O)C(C)C (stereo not shown) [NSC697468] | -5.22
CC(=O)NCCCCCCNC(C)=O [NSC95580] | -114.38
CCN(CC)CCOc1ccc(C(O)(Cc2ccc(OC)cc2)c2ccccc2)cc1 (stereo not shown) [NSC19857] | -57.96
N[C@H](C(=O)O)[C@H]1ON=C(Cl)[C@H]1O [NSC176324] | -9.23
O=C1C(C(O)(C(F)(F)F)C(F)(F)F)CCC1C(O)(C(F)(F)F)C(F)(F)F (stereo not shown) [NSC664181] | -5.59
O=C(Nc1ccccc1-c1nn(C(=S)Nc2ccccc2)c(=S)n(C(=S)Nc2ccccc2)c1=O)C(F)(F)F [NSC623093] | -49.57
COc1cc2c(c(OC)c1OC)-c1c(cc3c(c1OC)OCO3)CC(C)C(C)(O)C2OC(=O)c1ccccc1 (stereo not shown) [NSC330516] | -37.93
COc1cc2oc(=O)cc(C)c2cc1[N+](=O)[O-] [NSC299879] | -32.05
CC(C)=CCC(OC(=O)C=C(C)C)C1=CC(=O)c2c(O)ccc(O)c2C1=O (stereo not shown) [NSC140377] | -8.72
CC(C)C1=CC2=CC[C@@H]3[C@](C)(CCC[C@@]3(C)C(=O)O)[C@H]2CC1 [NSC25149] | -16.60
Cc1cccc(C)c1NC(=O)C(=O)C(c1ccccc1Cl)S(=O)(=O)Cc1ccccc1Cl (stereo not shown) [NSC657722] | -170.05
CC(Cc1ccccc1)NC1=NCCO1 (stereo not shown) [NSC664298] | -116.71
CC(C)[C@@H](C)/C=C/[C@@H](C)[C@H]1CC[C@H]2C3=CC=C4C[C@@H](O)CC[C@]4(C)[C@H]3CC[C@]12C [NSC62791] | -22.35
Oc1[nH]c2ccccc2c1N=Nc1nc(-c2ccc(Br)cc2)cs1 [NSC657456] | -18.36
O=C1C=C2C=CC3CC2(O1)C1CCCCN31 (stereo not shown) [NSC107415] | -39.15

Structure (SMILES) | MEAN CpLDH INHIBITION (%)
C=C1C(=O)OCC2C(C(=O)O)=CC3C(C)C(C)=CC123 (stereo not shown) [NSC145150] | -64.31
CS(=O)(=O)c1nc(N)nc2nc[nH]c12 [NSC63446] | -4.16
COc1ccc(-c2cc(-c3ccccc3)nc3c2CC(=O)Nc2ccccc2-3)cc1OC [NSC682769] | -0.10
[Cl-].c1csc(C[N+]23CN4CN(CN(C4)C2)C3)c1 [NSC49660] | -3.53
O=C1C=Cc2ncccc2C1=O [NSC400944] | -2.52
CC(=O)O[C@@H]1[C@@H](O)[C@H](O[C@H]2[C@H](OC(=O)[C@H]3CC[C@H]4[C@@H](C3)O[C@@]3(C[C@H](OC(=O)/C=C/c5ccccc5)[C@H](C)CO3)[C@]43CO3)O[C@H](C)[C@@H](O)[C@@H]2OC(C)=O)O[C@H](C)[C@H]1O [NSC328426] | -30.81
CC(C)C1(Cl)CCC2C3(C)CCCC(C)(C(=O)O)C3CC(Cl)C2(Cl)C1Cl (stereo not shown) [NSC2979] | -29.91
CC(C)c1ccc2nc3ccc(C(=O)NCCN(C)C)cn3c(=O)c2c1 [NSC600305] | -31.37
CCc1cccc(C(C)C)c1NC(=O)/C(=N\NC(N)=O)C(C(=O)OC)c1cnc2ccccc2n1 (stereo not shown) [NSC642033] | -12.26
c1ccc(-c2cccc(-c3ccccn3)n2)nc1 [NSC3905] | -48.97
CCOC(=O)C1=C(O)CSC1=Nc1ccc(N=C2SCC(O)=C2C(=O)OCC)cc1 [NSC623746] | -45.42
CN(C)CCOC1(Cc2ccc(F)cc2)CCC(C(C)(C)C)CC1.O=C(O)/C=C/C(=O)O (stereo not shown) [NSC670226] | -20.67
CN(CO)c1nc(N(C)CO)nc(N(C)CO)n1 [NSC283162] | -65.77
COc1ccc(C2=Nc3ccccc3SC(C)C2)cc1 (stereo not shown) [NSC636817] | -5.00
CC(C)c1oc(=O)cc2c1[C@@H](O)[C@H]1OC(=O)[C@@]3(C)[C@@H](O)[C@H]4O[C@H]4[C@@]2(C)[C@@H]13 [NSC211500] | -13.24
CC1(c2cccc3ccccc23)OC(=O)c2ccccc21 (stereo not shown) [NSC97703] | -3.23
CC1(C)C(O)OC(O)C1(C)C (stereo not shown) [NSC614928] | -7.87
Cc1c2c(cc3c1[nH]c1ccccc13)C=NCC2 [NSC86100] | -9.40
O=c1cnn(C2OC(CO)C(O)C2O)c(=S)[nH]1 (stereo not shown) [NSC146268] | -43.94
COc1ccc2c(c1)CCc1c-2n[nH]c1-c1[nH]nc2c1CCc1cc(OC)ccc1-2 [NSC371846] | -16.04
O=C1Nc2c(Cl)cc(Cl)cc2C1=O [NSC26045] | -41.99
CN(C)CCCCN1CCc2c(n(C)c3ccccc23)C1=O.Cl [NSC658388] | -30.45
[Cl][Pt+2][Cl].[NH-]C1CCCCC1[NH-] (stereo not shown) [NSC265459] | -11.78

same assay, conditions: 20 μM compound; 10 mM pyruvate, 1 mM NADH; values below 0 = augmenters

Structure (SMILES) | MEAN CpLDH INHIBITION (%)
C/C(=N\NC(=S)N1CCC1)c1ccccn1 [NSC319726] | -58.85
